Among the test systems are 786-0; A549; CAKI-1; HCC 2998; HCT-116; HL-60; Hs-578T; M14; MCF7; MDA-MB-435; NCI-H23; PC-3; RPMI-8226; SF-295; SK-MEL-28; SNB-19; SNB-75; UACC-62; Malme-3M; NCI-H522.
Common to all, as to assay: inhibition of tumour cell growth, NCI panel, 48 h

Molecules are shown by their SMILES.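 Values below derive from 48-hour exposures of cells grown in 96-well plates, with endpoints linearly interpolated between the two concentrations bracketing the appropriate inhibition level. At the GI50, growth is halved.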 Activity calls are given as the source filed them. Rule as the data show it: active = GI50 up to about 1.1 µM and inactive = higher.

Take `COc1ccc(/C=C2\CCS(=O)(=O)c3ccccc3C2=O)cc1`: the GI50 was 18.3 µM (inactive) in the assay on 786-0; 39.4 µM (inactive) with A549; 26.5 µM (inactive) in the assay on CAKI-1; 20 µM (inactive) in the assay with HCC 2998; 17.1 µM (inactive) in the assay on HCT-116; 21.5 µM (inactive) in the assay on HL-60. Also, the GI50 in the assay on Hs-578T was 31.3 µM (inactive); in the assay with M14, 34.4 µM (inactive); in the assay with MCF7 it was 35.4 µM (inactive); with MDA-MB-435 it was 26.9 µM (inactive); with NCI-H23, 25.7 µM (inactive); in the assay on PC-3, 27.5 µM (inactive). The GI50 with RPMI-8226 was 19.3 µM (inactive); in the assay on SF-295 it was 35 µM (inactive); with SK-MEL-28, 26.9 µM (inactive); with SNB-19, 24.5 µM (inactive); in the assay on SNB-75 it was 33.3 µM (inactive); in the assay with UACC-62, 20 µM (inactive).

In the case of `CSC(SC)=C(C(=O)c1ccc(Cl)cc1)n1c(=O)sc2cc(Br)ccc21`, the GI50 was > 100 µM (inactive) with 786-0; > 100 µM (inactive) in the assay with A549; 23.1 µM (inactive) with CAKI-1; > 100 µM (inactive) in the assay on HCC 2998; 51.3 µM (inactive) with HCT-116; > 100 µM (inactive) in the assay on HL-60. Further, the GI50 in the assay with Hs-578T, with M14, with MCF7, in the assay on MDA-MB-435, with Malme-3M and in the assay on NCI-H23 was > 100 µM (inactive) each time. Besides, the GI50 in the assay on NCI-H522, with PC-3, in the assay with RPMI-8226, in the assay with SF-295, with SK-MEL-28 and in the assay on SNB-19 was > 100 µM (inactive) each time. Further, the GI50 in the assay with UACC-62 is > 100 µM (inactive).

Take `CCC(C)C(=O)OC1C(=O)OC2CC3C(C)=CC(=O)C(O)C3(C)C3C4(O)OCC23C1C(C)C4O` (centres undefined): the GI50 in the assay with 786-0 is < 0.0166 µM (active); in the assay on A549, 0.155 µM (active); with CAKI-1, 0.115 µM (active); in the assay on HCC 2998 it was < 0.0262 µM (active); in the assay with HCT-116 it was < 0.01 µM (active); in the assay with Hs-578T it was < 0.0202 µM (active). Further, the GI50 with M14 is < 0.0146 µM (active); with MCF7 it was < 0.01 µM (active); in the assay with MDA-MB-435, < 0.0124 µM (active); in the assay on Malme-3M, < 0.0104 µM (active); with NCI-H23, < 0.0144 µM (active); in the assay with NCI-H522 it was < 0.0105 µM (active). Moreover, the GI50 with PC-3 is < 0.0199 µM (active); in the assay with RPMI-8226 it was < 0.0111 µM (active); in the assay with SF-295, < 0.0204 µM (active); in the assay with SK-MEL-28 it was < 0.0164 µM (active); in the assay on SNB-19, < 0.0152 µM (active); in the assay with SNB-75, < 0.0204 µM (active). The GI50 with UACC-62 was < 0.0184 µM (active).

Take `CCN(CC)c1ccc2cc(C(=O)Nc3ccccc3OC)c(=N)oc2c1`: the GI50 in the assay with 786-0 is 14.7 µM (inactive); in the assay on A549, 21.8 µM (inactive); with CAKI-1 it was 23.7 µM (inactive); in the assay on HCC 2998, 21.8 µM (inactive); in the assay on HCT-116 it was 15.4 µM (inactive); in the assay on HL-60, 7.5 µM (inactive). The GI50 with Hs-578T is 22.1 µM (inactive); with M14, 35.2 µM (inactive); with MCF7, 16.3 µM (inactive); in the assay with MDA-MB-435, 34.2 µM (inactive); with Malme-3M, 32.3 µM (inactive); with NCI-H23 it was 20.4 µM (inactive). Moreover, the GI50 in the assay with NCI-H522 is 10.4 µM (inactive); in the assay on PC-3 it was 11.8 µM (inactive); in the assay with RPMI-8226 it was 15.9 µM (inactive); in the assay on SF-295 it was 33.9 µM (inactive); in the assay on SK-MEL-28 it was 32.9 µM (inactive); in the assay on SNB-19, 16.1 µM (inactive). The GI50 in the assay with UACC-62 is 25.2 µM (inactive).

For the molecule `CCN1C(NN)=NS(=O)(=O)c2ccccc21`, the GI50 in the assay with 786-0, in the assay with A549, with CAKI-1, in the assay on HCC 2998, in the assay with HCT-116 and in the assay on HL-60 was > 100 µM (inactive) in each case. Also, the GI50 in the assay with Hs-578T, with M14, in the assay on MCF7, with MDA-MB-435, in the assay on NCI-H23 and in the assay with NCI-H522 was > 100 µM (inactive) in each case. Also, the GI50 in the assay with PC-3, in the assay with SF-295, with SK-MEL-28, in the assay on SNB-19 and with UACC-62 was > 100 µM (inactive) each time.

Consider `COC(=O)N1CC[C@@H]2CCC=C(c3cccc4c3OCO4)[C@@H]21`, for which the GI50 is > 100 µM (inactive) in the assay with 786-0; > 100 µM (inactive) in the assay on A549; > 100 µM (inactive) in the assay with CAKI-1; > 100 µM (inactive) in the assay on HCC 2998; > 100 µM (inactive) in the assay on HCT-116; 30.9 µM (inactive) with HL-60. The GI50 in the assay with Hs-578T, in the assay on M14, in the assay with MCF7, in the assay with MDA-MB-435, in the assay with Malme-3M and in the assay on NCI-H23 was > 100 µM (inactive) in each case. Besides, the GI50 with NCI-H522 was > 100 µM (inactive); in the assay on PC-3 it was 54.2 µM (inactive); in the assay with SF-295, > 100 µM (inactive); in the assay on SK-MEL-28 it was > 100 µM (inactive); with SNB-19, 74.3 µM (inactive); with SNB-75, 17.7 µM (inactive). In the assay on UACC-62, the GI50 is 81.7 µM (inactive).

On to `CCCCOCCOCCOC1=CC(=O)c2c(O)ccc(O)c2C1=O`, for which the GI50 with 786-0 is 1.6 µM (inactive); in the assay on A549, 1.8 µM (inactive); in the assay on CAKI-1, 1.95 µM (inactive); in the assay on HCC 2998 it was 1.82 µM (inactive); in the assay on HCT-116, 1.76 µM (inactive); with HL-60, 2.27 µM (inactive). In addition, the GI50 in the assay on Hs-578T was 2.55 µM (inactive); with M14 it was 1.51 µM (inactive); with MCF7, 1.75 µM (inactive); with MDA-MB-435 it was 0.188 µM (active); in the assay on Malme-3M it was 0.4 µM (active); in the assay on NCI-H23, 1.82 µM (inactive). Besides, the GI50 in the assay on NCI-H522 is 1.63 µM (inactive); with PC-3, 3 µM (inactive); with RPMI-8226, 2.4 µM (inactive); in the assay on SF-295, 1.68 µM (inactive); in the assay on SK-MEL-28, 1.53 µM (inactive); with SNB-19, 1.79 µM (inactive). In the assay on UACC-62, the GI50 is 1.82 µM (inactive).

Take `C[C@@H]1C[C@@H](O)[C@@]2(O)C13CC(=O)OC(C3)[C@@H](C)[C@@]2(C)CO` (some centres undefined): the GI50 in the assay with 786-0, in the assay on A549, in the assay with HCC 2998, in the assay on HCT-116, in the assay with HL-60 and with Hs-578T was > 100 µM (inactive) each time. In addition, the GI50 with M14, with MCF7, in the assay with MDA-MB-435, in the assay with Malme-3M, with NCI-H23 and in the assay on NCI-H522 was > 100 µM (inactive) in each case. In addition, the GI50 with PC-3, in the assay with RPMI-8226, in the assay on SF-295, with SK-MEL-28, with SNB-19 and with UACC-62 was > 100 µM (inactive) each time.

As for `CCOC(=O)NC(Nc1ccc(S(=O)(=O)Nc2ccc(OC)nn2)cc1)(C(F)(F)F)C(F)(F)F`, the GI50 in the assay with 786-0 was 20.9 µM (inactive); with A549 it was 35.3 µM (inactive); with CAKI-1 it was > 100 µM (inactive); in the assay with HCC 2998 it was > 100 µM (inactive); in the assay on HCT-116, 22.6 µM (inactive); in the assay on HL-60, 26.7 µM (inactive). In addition, the GI50 was 35.2 µM (inactive) in the assay on Hs-578T; 18 µM (inactive) with M14; 36.4 µM (inactive) with MCF7; 14.5 µM (inactive) with MDA-MB-435; 20.2 µM (inactive) in the assay with Malme-3M; 31.3 µM (inactive) in the assay on NCI-H23. Besides, the GI50 was 21.3 µM (inactive) in the assay with PC-3; 20.6 µM (inactive) in the assay with RPMI-8226; 37 µM (inactive) in the assay with SF-295; 24.9 µM (inactive) with SK-MEL-28; 43.2 µM (inactive) with SNB-19; 26.8 µM (inactive) in the assay with SNB-75. In the assay on UACC-62, the GI50 is 45 µM (inactive).

Turning to `O=C(O)C1(Cc2ccccc2)Cc2ccccc2C1`, the GI50 was > 100 µM (inactive) in the assay with A549; > 100 µM (inactive) with HCC 2998; > 100 µM (inactive) in the assay with HCT-116; > 100 µM (inactive) in the assay on HL-60; 94.4 µM (inactive) in the assay with Hs-578T; > 100 µM (inactive) in the assay on M14. The GI50 with MCF7, in the assay with MDA-MB-435, with Malme-3M, in the assay on NCI-H23, with NCI-H522 and in the assay on PC-3 was > 100 µM (inactive) in each case. Besides, the GI50 in the assay on RPMI-8226 is > 100 µM (inactive); in the assay on SF-295, > 100 µM (inactive); in the assay on SK-MEL-28, > 100 µM (inactive); in the assay on SNB-19, > 100 µM (inactive); with SNB-75, 10.6 µM (inactive); in the assay with UACC-62, > 100 µM (inactive).

For `Cc1oc(N)c(S(=O)(=O)c2ccc(Cl)cc2)c1C`, the GI50 is 73.8 µM (inactive) in the assay with 786-0; 34.4 µM (inactive) with A549; 23.8 µM (inactive) in the assay with HCC 2998; 39.4 µM (inactive) in the assay on HCT-116; 88.9 µM (inactive) with HL-60; 50.7 µM (inactive) in the assay on Hs-578T. The GI50 is 29.6 µM (inactive) in the assay on M14; 50.4 µM (inactive) in the assay with MCF7; 55.3 µM (inactive) with MDA-MB-435; 29.9 µM (inactive) in the assay with Malme-3M; 32.8 µM (inactive) with NCI-H23; 30 µM (inactive) with NCI-H522. Besides, the GI50 with PC-3 was 23.7 µM (inactive); with RPMI-8226, 40.2 µM (inactive); in the assay on SF-295, 39.5 µM (inactive); with SK-MEL-28, > 100 µM (inactive); in the assay on SNB-19, > 100 µM (inactive); with SNB-75 it was 29.9 µM (inactive). Further, the GI50 with UACC-62 is 37.9 µM (inactive).

The values above are taken from ChEMBL document CHEMBL1201862, “PubChem BioAssay data set” (2004).
